Key:
[1] = target: T1, Adenylate Kinase (rabbit muscle) (Oryctolagus cuniculus, UniProt P00569); test: AMP site/enzyme selectivity: adenylate kinase; type: biochemical; conditions: selectivity table; read-out: Adenylate Kinase (inh.)
T1 construct: purchased Sigma
T1 sequence (P00569 1-194): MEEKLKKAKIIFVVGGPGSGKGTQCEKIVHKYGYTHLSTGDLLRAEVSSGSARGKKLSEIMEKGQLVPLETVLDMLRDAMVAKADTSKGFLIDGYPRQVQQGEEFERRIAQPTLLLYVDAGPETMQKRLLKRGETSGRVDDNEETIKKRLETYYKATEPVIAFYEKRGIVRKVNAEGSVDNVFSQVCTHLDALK

[2] = target: T2, Glycogen Phosphorylase (rabbit muscle) (Oryctolagus cuniculus, UniProt P00489); test: AMP site/enzyme selectivity: glycogen phosphorylase
T2 sequence (P00489 2-843 limits assumed): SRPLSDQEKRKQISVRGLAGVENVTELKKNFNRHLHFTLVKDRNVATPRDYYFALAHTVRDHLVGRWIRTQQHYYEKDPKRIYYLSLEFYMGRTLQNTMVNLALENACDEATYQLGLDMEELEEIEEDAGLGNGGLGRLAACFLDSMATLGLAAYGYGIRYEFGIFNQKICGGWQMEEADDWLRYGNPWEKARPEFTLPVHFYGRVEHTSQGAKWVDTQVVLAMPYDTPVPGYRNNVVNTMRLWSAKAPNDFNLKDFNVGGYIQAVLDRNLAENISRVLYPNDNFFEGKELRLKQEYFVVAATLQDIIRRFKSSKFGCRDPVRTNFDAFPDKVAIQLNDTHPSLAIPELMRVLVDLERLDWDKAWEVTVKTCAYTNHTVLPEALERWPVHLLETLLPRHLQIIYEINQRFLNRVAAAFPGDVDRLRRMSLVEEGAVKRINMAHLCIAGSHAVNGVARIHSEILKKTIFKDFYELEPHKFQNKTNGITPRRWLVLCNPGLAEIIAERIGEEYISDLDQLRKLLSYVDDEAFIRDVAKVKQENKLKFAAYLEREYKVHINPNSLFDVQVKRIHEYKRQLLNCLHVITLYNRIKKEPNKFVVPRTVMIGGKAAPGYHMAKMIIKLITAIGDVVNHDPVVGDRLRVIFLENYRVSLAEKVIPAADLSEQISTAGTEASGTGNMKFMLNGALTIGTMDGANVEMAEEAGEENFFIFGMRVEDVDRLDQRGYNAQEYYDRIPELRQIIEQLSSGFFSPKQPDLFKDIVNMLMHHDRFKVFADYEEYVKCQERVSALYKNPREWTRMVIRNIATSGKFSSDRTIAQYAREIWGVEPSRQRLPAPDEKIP
Method: To determine the selectivity of compounds towards FBPase, effects of FBPase inhibitors on 5 key AMP binding enzymes were measured using the assays described below: • Adenosine Kinase: Human adenosine kinase was purified from an E. coli expression system as described by Spychala et al. (Spychala, J., Datta, N. S., Takabayashi, K., Datta, M., Fox, I. H., Gribbin, T., and Mitchell, B. S. Proc. Natl. Acad. Sci. USA 1996, 93, 1232-1237). Activity was measured essentially as described by Yamada et al. (Yamada, Y., Goto, H., Ogasawara, N. Biochim. Biophys. Acta 1988, 660, 36-43.) with a few minor modifications. Assay mixtures contained 50 mM TRIS-maleate buffer, pH 7.0, 0.1% BSA, 1 mM ATP 1 mM MgCl2, 1.0 μM [U-^14C] adenosine (400-600 mCi/mmol) and varying duplicate concentrations of inhibitor. ^14C-AMP was separated from unreacted ^14C-adenosine by absorption to anion exchange paper (Whatman) and quantified by scintillation counting. • Adenosine Monophosphate Deaminase: Porcine heart AMPDA was purified essentially as described by Smiley et al. (Smiley, K. L., Jr, Berry, A. J., and Suelter, C. H. J. Biol. Chem. 1967, 242, 2502-2506) through the phosphocellulose step. Inhibition of AMPDA activity was determined at 37° C. in a 0.1 mL assay mixture containing inhibitor, ˜0.005U AMPDA, 0.1% bovine serum albumin, 10 mM ATP, 250 mM KCl, and 50 mM MOPS at pH 6.5. […]

mouse liver FBPase = target: T3, mouse liver FBPase (Mus musculus, UniProt Q9QXD6); test: In vitro inhibition of mouse liver FBPase; type: biochemical
T3 construct: This partially purified fraction was used for enzyme assays; from tissue; host or cells: mouse liver
T3 sequence (Q9QXD6 2-338 limits assumed): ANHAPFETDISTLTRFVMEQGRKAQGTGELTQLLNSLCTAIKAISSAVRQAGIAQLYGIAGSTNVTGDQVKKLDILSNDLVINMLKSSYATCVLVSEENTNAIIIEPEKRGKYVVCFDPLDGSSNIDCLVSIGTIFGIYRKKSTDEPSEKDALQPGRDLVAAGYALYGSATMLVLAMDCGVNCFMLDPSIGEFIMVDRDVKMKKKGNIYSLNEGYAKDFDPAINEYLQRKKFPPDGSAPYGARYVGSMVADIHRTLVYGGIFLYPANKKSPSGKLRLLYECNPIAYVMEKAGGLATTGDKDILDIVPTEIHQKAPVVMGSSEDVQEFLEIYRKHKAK
Method: (§1) Mouse liver FBPase was obtained by homogenizing freshly isolated mouse liver in 100 mM Tris-HCl buffer, pH 7.4, containing 1 mM EGTA, and 10% glycerol. […] This fraction was redissolved in the homogenization buffer and desalted on a PD-10 gel filtration column (Biorad) eluted with same. This partially purified fraction was used for enzyme assays. Both rat liver and mouse liver FBPase were assayed as described for human liver FBPase.

Human adenosine kinase = target: T4, Human adenosine kinase (Homo sapiens, UniProt P55263); test: AMP site/enzyme selectivity: adenosine kinase; type: biochemical; conditions: selectivity table; read-out: Adenosine Kinase (inh.)
T4 construct: made in house; host or cells: E. coli

human liver FBPase = target: T5, human liver FBPase (Homo sapiens, UniProt P09467); test: Inhibition of human liver FBPase (coupled spectrophotometric assay); type: biochemical
T5 construct: made in house; host or cells: E. coli BL21
T5 sequence (P09467 2-338 limits assumed): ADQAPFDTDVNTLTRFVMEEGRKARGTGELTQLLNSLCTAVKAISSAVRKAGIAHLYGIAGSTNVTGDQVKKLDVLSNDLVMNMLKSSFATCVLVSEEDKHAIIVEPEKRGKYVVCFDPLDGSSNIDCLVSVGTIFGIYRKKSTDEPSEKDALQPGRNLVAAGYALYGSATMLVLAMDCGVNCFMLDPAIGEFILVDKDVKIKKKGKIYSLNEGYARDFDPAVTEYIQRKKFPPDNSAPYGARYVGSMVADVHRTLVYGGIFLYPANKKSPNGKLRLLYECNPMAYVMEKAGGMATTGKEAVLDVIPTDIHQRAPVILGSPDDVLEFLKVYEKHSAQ

rat hepatocytes = test: Inhibition of gluconeogenesis (glucose production from lactate/pyruvate) in rat hepatocytes; type: cell-based; conditions: Hepatocyte; from lactate/pyruvate, isolated rat hepatocytes
Method: Hepatocytes were prepared from overnight fasted Sprague-Dawley rats (250-300 g) according to the procedure of Berry and Friend (Berry, M. N., Friend, D. S., J. Cell. Biol. 1969, 43, 506-520) as modified by Groen (Groen, […]., Eur. J. Biochem. 1982, 122, 87-93). […] Incubations were carried out in a 95% oxygen, 5% carbon dioxide atmosphere in closed, 50-mL Falcon tubes submerged in a rapidly shaking water bath (37° C.). After 1 hour, an aliquot (0.25 mL) was removed, transferred to an Eppendorf tube and centrifuged. 50 μl of supernatant was then assayed for glucose content using a Sigma Glucose Oxidase kit as per the manufacturer's instructions.

rat liver FBPase = target: T6, rat liver FBPase (Rattus norvegicus, UniProt P19112); test: In vitro inhibition of rat liver FBPase; type: biochemical
T6 construct: made in house; host or cells: E. coli BL21
T6 sequence (P19112 2-363 limits assumed): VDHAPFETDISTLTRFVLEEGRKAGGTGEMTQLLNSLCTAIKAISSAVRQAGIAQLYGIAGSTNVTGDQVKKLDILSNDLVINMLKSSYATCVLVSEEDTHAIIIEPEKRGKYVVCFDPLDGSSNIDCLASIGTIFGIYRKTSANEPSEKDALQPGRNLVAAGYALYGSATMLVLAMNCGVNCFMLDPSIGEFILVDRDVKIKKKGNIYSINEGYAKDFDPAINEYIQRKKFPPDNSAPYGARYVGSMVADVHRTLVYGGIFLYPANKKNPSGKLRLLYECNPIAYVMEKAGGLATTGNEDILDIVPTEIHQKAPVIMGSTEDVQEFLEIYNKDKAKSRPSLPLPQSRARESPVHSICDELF
Method: as §1

T4 sequence (P55263 1-345 isoform P55263-2): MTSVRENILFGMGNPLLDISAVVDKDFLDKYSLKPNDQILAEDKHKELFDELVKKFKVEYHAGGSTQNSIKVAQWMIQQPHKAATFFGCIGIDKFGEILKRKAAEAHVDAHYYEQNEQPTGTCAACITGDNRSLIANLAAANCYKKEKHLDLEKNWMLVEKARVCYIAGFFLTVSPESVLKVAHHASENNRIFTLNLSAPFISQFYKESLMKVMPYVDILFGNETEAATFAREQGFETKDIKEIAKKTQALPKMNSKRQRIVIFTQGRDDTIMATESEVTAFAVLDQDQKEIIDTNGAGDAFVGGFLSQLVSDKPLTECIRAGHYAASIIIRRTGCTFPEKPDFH

IC50 [1]: > 500 µM
EC50 [2]: > 250 µM
IC50 (mouse liver FBPase): > 20 µM
IC50 (Human adenosine kinase): > 10 µM
IC50 (human liver FBPase): 5 µM
IC50 (rat liver FBPase): 100 µM
Structure (SMILES): Nc1ncnc2c1nc(-c1ccc(P(=O)(O)O)o1)n2CCc1ccccc1 [Compound 2.1, N^9-(2-phenethyl)-8-(2-(5-phosphono)furanyl)adenine]
IC50 (rat hepatocytes): 90 µM

— patent publication US7285543B2, “Purine inhibitors of fructose-1,6-bisphosphatase” (Metabasis Therapeutics, Inc., priority 1997, dated 2007)
